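Results reflect a 48-hour exposure of cells in 96-well plates to compound at five concentrations. At the TGI there is no net growth.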
What was measured:
Assay in all cases: NCI-60 cell line screen, 48 h
MDA-N = system: MDA-N
SF-539 CNS = system: SF-539 CNS
NCI-H23 lung = system: NCI-H23 lung
U251 CNS = system: U251 CNS
NCI/ADR-RES ovarian = system: NCI/ADR-RES ovarian
OVCAR-8 ovarian = system: OVCAR-8 ovarian
RPMI-8226 leukemia = system: RPMI-8226 leukemia
SF-295 CNS = system: SF-295 CNS
LOX IMVI melanoma = system: LOX IMVI melanoma
SK-OV-3 ovarian = system: SK-OV-3 ovarian
BT-549 breast = system: BT-549 breast
SN12C renal = system: SN12C renal
UACC-257 melanoma = system: UACC-257 melanoma
MDA-MB-231 breast = system: MDA-MB-231 breast
K-562 leukemia = system: K-562 leukemia

Compound | TGI (MDA-N) [µM] | TGI (SF-539 CNS) [µM] | TGI (NCI-H23 lung) [µM] | TGI (U251 CNS) [µM] | TGI (NCI/ADR-RES ovarian) [µM] | TGI (OVCAR-8 ovarian) [µM] | TGI (RPMI-8226 leukemia) [µM] | TGI (SF-295 CNS) [µM] | TGI (LOX IMVI melanoma) [µM] | TGI (SK-OV-3 ovarian) [µM] | TGI (BT-549 breast) [µM] | TGI (SN12C renal) [µM] | TGI (UACC-257 melanoma) [µM] | TGI (MDA-MB-231 breast) [µM] | TGI (K-562 leukemia) [µM]
CC1(C)OCC(C2OC(=O)C(OCc3ccccc3)=C2OCc2ccccc2)O1 (stereo not given) | > 100 | > 100 | 92.5 | > 100 | > 100 | > 100 | 76.5 | > 100 | > 100 | > 100 | 93.2 | > 100 | 96.8 | > 100 | > 100
COc1ccc2c(c1)-c1c(c3ccccc3n1CCN1CCOCC1)CC2 | > 100 | 52.4 | 65.6 | 81.8 | 46 | 53.2 | 97 | 35.5 | 34.5 | > 100 | 63.5 | > 100 | > 100 | 90.9 | 54.5
Cn1c2cc(Cl)ccc2c2ccc3c(c21)C(=O)C=CC3=O | 83.1 | > 78.8 | 54.4 | > 100 | > 89.7 | > 100 | 23.7 | > 100 | > 100 | > 100 | > 63.8 | 21.2 | > 77.3 | > 68.6 | 11.4
O=C(O)[C@H]1NC[C@@H]2ON=C(Br)[C@@H]21 | > 100 | > 100 | > 100 | > 100 | > 100 | > 100 | > 100 | > 100 | > 100 | > 100 | > 100 | > 100 | > 100 | > 100 | > 100

Source: PubChem BioAssay (NCI)
